# Measurements: ChEMBL document CHEMBL1201862, “PubChem BioAssay data set” (2004)
# Activity calls are given as the source filed them.
# How the values were obtained:
# [1] = target: T1, Alkaline phosphatase, tissue-nonspecific isozyme (Homo sapiens, UniProt P05186); assay: human TNAP enzyme inhibitors, SAR follow-up, biochemical, luminescent, dose response (AID 1056)
# T1 sequence (P05186 whole entry): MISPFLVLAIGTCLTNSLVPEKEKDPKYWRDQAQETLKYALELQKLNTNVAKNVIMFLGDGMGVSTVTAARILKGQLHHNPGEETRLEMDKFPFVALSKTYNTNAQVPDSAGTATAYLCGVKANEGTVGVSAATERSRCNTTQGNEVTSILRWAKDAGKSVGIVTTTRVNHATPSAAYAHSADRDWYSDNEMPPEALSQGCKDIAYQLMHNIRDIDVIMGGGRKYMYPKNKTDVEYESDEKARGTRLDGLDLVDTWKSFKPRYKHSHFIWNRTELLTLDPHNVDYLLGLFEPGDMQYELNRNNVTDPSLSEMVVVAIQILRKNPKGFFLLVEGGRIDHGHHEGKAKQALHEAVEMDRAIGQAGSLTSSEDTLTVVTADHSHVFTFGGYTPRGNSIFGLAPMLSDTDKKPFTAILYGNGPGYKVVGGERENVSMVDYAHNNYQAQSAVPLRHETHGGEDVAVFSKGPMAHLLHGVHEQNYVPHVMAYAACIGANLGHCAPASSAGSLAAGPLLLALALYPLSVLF
# [2] = target: Alkaline phosphatase, placental type (Homo sapiens, UniProt P05187); assay: PLAP enzyme inhibitors, confirmation, biochemical, luminescence (AID 1512); assay type: functional
# HEK293 [3] = assay: cells; assay type: functional, cell-based; settings: Homo sapiens
# HEK293 [4] = assay: NOD2 signaling inhibitors in MDP-stimulated cells, cell-based, uHTS, luminescence (AID 2001); assay type: functional; settings: Homo sapiens
# HEK293 [5] = assay: cells; assay type: functional, cell-based; settings: Homo sapiens; remark: listed apart in the source
# [6] = control 3'UTR Renilla luciferase suppression, dose response, counter-screen for Shn3 inhibitor project, cell-based, Clone20-Shn3RL, cherry-picked (AID 624133); assay type: functional
# HEK293 [7] = assay: cells; settings: Homo sapiens
# Tumor necrosis factor = Tumor necrosis factor (Homo sapiens, UniProt P01375); assay: TNFa-triggered NF-kB activation inhibitors, SAR follow-up, cell-based, revised (AID 2337); assay type: functional
# HEK293 [8] = assay: cells; assay type: functional, cell-based; settings: Homo sapiens; remark: listed apart in the source
# [9] = target: T2, Nucleotide-binding oligomerization domain-containing protein 1 (Homo sapiens, UniProt Q9Y239); assay: NOD1 signaling inhibitors, SAR follow-up, revised (AID 2333); assay type: functional
# T2 sequence (Q9Y239 whole entry): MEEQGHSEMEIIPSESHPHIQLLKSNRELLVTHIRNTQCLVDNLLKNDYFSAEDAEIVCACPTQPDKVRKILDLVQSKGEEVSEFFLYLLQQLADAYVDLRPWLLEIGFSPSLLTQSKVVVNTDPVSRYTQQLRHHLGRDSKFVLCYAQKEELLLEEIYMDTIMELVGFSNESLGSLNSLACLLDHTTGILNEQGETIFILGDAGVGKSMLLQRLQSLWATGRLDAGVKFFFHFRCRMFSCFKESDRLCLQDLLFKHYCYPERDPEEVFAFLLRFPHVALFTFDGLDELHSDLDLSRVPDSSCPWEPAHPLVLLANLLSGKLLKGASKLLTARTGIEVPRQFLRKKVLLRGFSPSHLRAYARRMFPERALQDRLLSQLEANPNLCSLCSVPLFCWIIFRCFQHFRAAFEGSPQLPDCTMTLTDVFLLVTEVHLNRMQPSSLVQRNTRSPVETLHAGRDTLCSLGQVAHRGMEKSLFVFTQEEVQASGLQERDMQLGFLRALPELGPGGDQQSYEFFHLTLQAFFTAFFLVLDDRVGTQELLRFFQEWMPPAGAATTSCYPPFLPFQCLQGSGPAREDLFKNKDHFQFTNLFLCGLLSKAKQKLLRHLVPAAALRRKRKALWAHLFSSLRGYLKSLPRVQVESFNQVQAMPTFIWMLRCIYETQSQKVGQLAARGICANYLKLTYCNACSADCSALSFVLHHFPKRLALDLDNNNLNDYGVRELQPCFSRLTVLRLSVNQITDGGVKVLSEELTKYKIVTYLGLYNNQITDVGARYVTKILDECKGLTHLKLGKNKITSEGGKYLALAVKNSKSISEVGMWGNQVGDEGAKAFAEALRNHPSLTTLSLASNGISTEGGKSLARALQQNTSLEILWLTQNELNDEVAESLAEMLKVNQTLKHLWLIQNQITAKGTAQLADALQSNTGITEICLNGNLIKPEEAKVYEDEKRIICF
# HEK293 [10] = assay: NOD1 signaling inhibitors, primary screen, cell-based, luminescence, uHTS (AID 1578); assay type: functional; settings: Homo sapiens
# [11] = target: Nucleotide-binding oligomerization domain-containing protein 2 (Homo sapiens, UniProt Q9HC29); assay: NOD2 signaling inhibitors, cell-based, luminescence, uHTS, HEK293 (AID 1566); assay type: functional
# [12] = Shn3 3'UTR reporter inhibitors, dose response, cell-based, Clone20 osteoblasts, firefly luciferase, cherry-picked (AID 624132); assay type: functional;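 further: firefly luciferase luminescence from reporter carrying the Shn3 3'UTR in osteoblasts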
# [13] = HepG2 cell cytotoxicity, dose response, cytotoxicity control for Shn3 inhibitor project, CellTiter-Glo, cherry-picked (AID 624134); assay type: functional, cell-based
# [14] = target: T3, DNA dC->dU-editing enzyme APOBEC-3G (Homo sapiens, UniProt Q9HC16); assay type: functional
# [15] = target: T4, DNA dC->dU-editing enzyme APOBEC-3A (Homo sapiens, UniProt P31941); assay: Dose Response confirmation of small molecule APOBEC3A DNA Deaminase Inhibitors via a fluorescence-based single-stranded DNA deaminase assay. [Related pubchem assays (depositor defined):AID493011, AID493024]; assay type: functional
# Cytochrome P450 2C19 = Cytochrome P450 2C19 (Homo sapiens, UniProt P33261); assay: Cytochrome panel assay with activity outcomes. Panel member name: p450-cyp2c19 Compounds with AC50 equal or less than 10 uM are considered active; assay type: functional; settings: read-out: AC50
# [16] = target: T3, DNA dC->dU-editing enzyme APOBEC-3G; assay: Dose Response confirmation of small molecule APOBEC3G DNA Deaminase Inhibitors via a fluorescence-based single-stranded DNA deaminase assay. [Related pubchem assays (depositor defined):AID493012, AID493028]; assay type: functional
# [17] = target: T4, DNA dC->dU-editing enzyme APOBEC-3A; assay: APOBEC3A DNA deaminase inhibitors, dose response, biochemical (AID 504722); assay type: functional
# [18] = growth suppression of beta-catenin-knockout colon cells, dose response, cell-based, HCT116, human colon tumor (AID 1045); assay type: functional;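 further: HCT116 colon tumor cells with beta catenin knocked out; cells exposed to compound for 60 hours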
# Ion channel NompC = Ion channel NompC (Danio rerio, UniProt Q7T1G6); assay: Dose response cell-based high-throughput screening assay for agonists of the transient receptor potential channel N1 (TRPN1). [Related pubchem assays (depositor defined):AID1424, AID1448]; assay type: functional
# [19] = growth suppression of PTEN-null colon cells, dose response, cell-based, HCT116 PTEN knockout (AID 1047); assay type: functional;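 further: HCT116 colon tumor cells with PTEN knocked out; cells exposed to compound for 60 hours before readout; potency for loss of cell viability measured by luminescence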
# Mucolipin-3 = target: T5, Mucolipin-3 (Homo sapiens, UniProt Q8TDD5); assay: Fluorescence counterscreen assay for […] agonists: dose response cell-based high-throughput screening assay to identify agonists of the transient receptor potential channel ML3 (TRPML3). [Related pubchem assays: 1424, 1448 ]; assay type: functional
# T5 sequence (Q8TDD5 whole entry): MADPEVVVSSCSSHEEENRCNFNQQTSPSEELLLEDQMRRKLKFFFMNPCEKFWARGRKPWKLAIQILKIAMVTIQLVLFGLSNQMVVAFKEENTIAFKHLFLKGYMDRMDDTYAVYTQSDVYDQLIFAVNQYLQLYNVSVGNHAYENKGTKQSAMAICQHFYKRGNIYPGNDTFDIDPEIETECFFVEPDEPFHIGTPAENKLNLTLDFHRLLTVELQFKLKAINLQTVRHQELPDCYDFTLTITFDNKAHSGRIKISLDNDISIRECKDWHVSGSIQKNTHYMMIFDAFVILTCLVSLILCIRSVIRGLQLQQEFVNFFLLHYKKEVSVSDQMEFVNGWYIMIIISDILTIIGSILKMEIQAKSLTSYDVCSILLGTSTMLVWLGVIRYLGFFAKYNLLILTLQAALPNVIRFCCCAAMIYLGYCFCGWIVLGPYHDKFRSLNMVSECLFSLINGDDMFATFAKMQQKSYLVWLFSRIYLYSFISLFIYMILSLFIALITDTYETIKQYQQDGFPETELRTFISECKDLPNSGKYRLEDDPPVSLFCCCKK
# [20] = target: T6, Corticotropin-releasing factor receptor 2/Corticotropin-releasing factor-binding protein (Homo sapiens, UniProt P24387+Q13324); assay: activators of CRF receptor 2 with binding protein – uHTS hits, confirmation (AID 602473); assay type: functional; settings: read-out: EC50_Mean
# T6 sequence (Q13324 whole entry): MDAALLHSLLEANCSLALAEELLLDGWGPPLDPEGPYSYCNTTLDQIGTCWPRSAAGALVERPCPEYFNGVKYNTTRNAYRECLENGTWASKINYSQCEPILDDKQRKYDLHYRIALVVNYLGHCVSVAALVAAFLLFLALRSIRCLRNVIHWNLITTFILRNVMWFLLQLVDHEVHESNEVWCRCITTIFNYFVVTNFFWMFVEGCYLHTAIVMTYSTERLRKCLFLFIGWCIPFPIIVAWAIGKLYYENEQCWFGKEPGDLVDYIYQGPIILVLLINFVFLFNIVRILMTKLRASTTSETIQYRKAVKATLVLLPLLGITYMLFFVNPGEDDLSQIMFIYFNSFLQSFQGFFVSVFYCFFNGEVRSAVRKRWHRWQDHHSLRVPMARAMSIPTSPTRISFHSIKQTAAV
# T6 sequence (P24387 whole entry): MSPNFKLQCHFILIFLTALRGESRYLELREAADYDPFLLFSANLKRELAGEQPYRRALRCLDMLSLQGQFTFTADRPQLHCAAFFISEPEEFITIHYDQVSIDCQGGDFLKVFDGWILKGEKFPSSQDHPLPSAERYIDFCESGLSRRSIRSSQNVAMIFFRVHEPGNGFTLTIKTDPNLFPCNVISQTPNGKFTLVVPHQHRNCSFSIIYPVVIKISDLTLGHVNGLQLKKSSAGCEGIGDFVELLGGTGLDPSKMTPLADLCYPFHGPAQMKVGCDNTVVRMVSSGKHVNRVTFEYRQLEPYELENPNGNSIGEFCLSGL
# Large T antigen = Large T antigen (Simian virus 40, UniProt P03070); assay type: functional, Betapolyomavirus macacae;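 further: Confirmatory-stage PubChem screen for compounds that inhibit SV40 T antigen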
# Leucine aminopeptidase = target: T7, Leucine aminopeptidase (Plasmodium falciparum 3D7, UniProt Q8IL11); assay: P. falciparum M17LAP inhibitors, primary screen, biochemical, fluorogenic H-Leu-NHMec substrate, 1536-well (AID 1619); assay type: functional
# T7 sequence (Q8IL11 whole entry): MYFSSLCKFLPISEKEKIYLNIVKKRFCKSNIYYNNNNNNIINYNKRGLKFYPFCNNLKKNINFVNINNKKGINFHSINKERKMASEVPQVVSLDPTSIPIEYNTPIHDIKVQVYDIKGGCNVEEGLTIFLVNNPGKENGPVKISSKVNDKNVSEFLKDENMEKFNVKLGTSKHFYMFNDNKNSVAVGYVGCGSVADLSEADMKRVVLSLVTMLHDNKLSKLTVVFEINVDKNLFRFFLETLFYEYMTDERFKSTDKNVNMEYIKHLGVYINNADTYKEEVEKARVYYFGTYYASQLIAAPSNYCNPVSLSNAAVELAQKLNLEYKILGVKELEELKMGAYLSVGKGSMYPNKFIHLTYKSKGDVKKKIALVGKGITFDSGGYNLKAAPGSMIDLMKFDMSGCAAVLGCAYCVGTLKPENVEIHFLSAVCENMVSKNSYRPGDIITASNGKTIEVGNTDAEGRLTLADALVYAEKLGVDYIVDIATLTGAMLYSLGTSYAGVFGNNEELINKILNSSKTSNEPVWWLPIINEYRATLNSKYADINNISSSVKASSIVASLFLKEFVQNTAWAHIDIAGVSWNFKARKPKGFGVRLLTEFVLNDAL
# T4 sequence (P31941 whole entry): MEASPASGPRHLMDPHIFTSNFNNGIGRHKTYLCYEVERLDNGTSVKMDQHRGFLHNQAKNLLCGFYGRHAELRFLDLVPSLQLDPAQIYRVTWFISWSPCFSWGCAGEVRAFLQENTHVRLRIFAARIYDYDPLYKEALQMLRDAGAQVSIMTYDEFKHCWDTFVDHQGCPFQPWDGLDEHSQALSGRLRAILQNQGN
# T3 sequence (Q9HC16 whole entry): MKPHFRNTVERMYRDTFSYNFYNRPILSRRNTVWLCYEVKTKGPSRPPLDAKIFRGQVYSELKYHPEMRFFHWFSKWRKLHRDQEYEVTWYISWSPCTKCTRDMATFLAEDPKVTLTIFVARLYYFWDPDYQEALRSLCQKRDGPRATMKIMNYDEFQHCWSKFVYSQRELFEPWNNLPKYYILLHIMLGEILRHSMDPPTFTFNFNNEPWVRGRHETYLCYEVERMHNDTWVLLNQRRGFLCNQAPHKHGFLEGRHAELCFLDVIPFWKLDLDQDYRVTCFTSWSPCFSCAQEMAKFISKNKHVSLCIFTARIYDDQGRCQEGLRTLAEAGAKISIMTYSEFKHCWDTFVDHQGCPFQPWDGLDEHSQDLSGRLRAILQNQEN
# Alkaline phosphatase, placental type, sequence (P05187 whole entry): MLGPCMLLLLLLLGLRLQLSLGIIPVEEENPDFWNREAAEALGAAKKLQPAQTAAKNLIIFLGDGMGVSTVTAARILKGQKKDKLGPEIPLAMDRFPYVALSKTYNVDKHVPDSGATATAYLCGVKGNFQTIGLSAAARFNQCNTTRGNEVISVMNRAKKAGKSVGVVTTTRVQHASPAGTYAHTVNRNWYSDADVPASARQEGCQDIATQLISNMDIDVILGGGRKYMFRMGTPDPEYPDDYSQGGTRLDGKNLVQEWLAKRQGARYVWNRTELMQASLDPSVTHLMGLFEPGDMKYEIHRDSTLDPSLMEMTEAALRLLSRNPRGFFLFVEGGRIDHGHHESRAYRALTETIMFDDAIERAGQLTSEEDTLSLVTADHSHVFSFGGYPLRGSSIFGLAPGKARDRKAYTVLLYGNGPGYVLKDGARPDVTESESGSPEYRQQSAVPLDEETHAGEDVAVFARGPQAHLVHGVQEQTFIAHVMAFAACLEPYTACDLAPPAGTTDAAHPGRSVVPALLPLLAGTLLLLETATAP
# Ion channel NompC, sequence (Q7T1G6 whole entry): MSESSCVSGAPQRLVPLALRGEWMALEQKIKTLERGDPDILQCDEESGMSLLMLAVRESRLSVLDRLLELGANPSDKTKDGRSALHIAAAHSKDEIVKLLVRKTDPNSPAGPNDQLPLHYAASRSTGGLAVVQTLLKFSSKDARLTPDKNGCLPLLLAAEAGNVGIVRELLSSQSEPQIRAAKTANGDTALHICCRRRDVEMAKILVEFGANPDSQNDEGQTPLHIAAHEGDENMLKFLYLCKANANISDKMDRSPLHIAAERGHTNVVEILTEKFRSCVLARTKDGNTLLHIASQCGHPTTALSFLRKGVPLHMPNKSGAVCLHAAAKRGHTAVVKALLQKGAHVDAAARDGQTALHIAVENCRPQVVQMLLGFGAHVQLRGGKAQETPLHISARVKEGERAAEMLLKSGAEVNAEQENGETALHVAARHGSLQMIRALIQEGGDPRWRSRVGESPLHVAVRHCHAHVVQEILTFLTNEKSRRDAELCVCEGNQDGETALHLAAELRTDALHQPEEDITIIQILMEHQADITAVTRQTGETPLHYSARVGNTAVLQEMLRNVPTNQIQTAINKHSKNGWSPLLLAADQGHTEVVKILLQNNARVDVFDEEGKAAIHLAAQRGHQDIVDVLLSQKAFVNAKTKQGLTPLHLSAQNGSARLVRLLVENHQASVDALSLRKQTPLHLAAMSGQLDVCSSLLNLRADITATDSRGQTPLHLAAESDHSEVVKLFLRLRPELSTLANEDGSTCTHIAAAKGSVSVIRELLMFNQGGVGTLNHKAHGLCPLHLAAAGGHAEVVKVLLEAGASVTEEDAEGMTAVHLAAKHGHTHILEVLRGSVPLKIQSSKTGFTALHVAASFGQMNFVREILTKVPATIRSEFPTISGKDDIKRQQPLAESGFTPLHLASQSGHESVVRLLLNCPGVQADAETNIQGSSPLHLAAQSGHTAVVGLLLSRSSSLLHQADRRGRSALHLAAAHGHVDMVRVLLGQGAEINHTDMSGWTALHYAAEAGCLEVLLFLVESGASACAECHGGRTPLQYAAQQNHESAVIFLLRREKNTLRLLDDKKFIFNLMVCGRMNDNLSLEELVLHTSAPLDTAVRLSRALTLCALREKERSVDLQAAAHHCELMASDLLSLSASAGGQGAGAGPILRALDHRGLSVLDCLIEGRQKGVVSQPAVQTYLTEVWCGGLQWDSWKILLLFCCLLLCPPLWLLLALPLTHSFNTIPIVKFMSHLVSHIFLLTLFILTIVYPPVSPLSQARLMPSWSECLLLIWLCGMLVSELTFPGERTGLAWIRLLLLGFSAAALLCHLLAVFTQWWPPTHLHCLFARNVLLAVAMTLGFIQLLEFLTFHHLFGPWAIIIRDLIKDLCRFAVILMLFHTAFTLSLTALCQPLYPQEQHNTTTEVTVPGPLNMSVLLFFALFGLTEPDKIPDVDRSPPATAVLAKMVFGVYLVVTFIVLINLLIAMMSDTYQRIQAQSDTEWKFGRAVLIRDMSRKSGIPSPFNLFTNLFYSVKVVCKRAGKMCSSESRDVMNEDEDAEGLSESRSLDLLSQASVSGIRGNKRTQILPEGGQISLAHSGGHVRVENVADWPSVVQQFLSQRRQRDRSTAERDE
# Cytochrome P450 2C19, sequence (P33261 whole entry): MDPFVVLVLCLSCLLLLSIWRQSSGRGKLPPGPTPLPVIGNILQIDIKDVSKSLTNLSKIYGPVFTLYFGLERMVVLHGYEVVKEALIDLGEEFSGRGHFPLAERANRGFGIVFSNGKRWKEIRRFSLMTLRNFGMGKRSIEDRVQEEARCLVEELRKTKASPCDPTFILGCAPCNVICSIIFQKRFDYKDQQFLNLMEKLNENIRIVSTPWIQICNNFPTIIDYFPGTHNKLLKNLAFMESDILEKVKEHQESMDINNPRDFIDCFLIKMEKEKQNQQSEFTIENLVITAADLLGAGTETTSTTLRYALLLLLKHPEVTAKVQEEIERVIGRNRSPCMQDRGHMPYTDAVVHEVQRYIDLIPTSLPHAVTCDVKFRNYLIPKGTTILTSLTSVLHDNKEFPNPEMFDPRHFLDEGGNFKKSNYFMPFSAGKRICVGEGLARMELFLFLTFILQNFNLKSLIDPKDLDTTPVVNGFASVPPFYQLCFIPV
# Tumor necrosis factor, sequence (P01375 whole entry): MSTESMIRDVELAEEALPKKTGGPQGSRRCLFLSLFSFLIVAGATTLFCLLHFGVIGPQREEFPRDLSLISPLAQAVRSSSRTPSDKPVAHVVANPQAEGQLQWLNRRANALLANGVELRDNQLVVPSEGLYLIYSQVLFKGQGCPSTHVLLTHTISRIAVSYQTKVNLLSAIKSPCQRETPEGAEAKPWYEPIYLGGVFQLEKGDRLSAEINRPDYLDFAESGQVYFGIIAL
# Nucleotide-binding oligomerization domain-containing protein 2, sequence (Q9HC29 whole entry, the tested form may be a part): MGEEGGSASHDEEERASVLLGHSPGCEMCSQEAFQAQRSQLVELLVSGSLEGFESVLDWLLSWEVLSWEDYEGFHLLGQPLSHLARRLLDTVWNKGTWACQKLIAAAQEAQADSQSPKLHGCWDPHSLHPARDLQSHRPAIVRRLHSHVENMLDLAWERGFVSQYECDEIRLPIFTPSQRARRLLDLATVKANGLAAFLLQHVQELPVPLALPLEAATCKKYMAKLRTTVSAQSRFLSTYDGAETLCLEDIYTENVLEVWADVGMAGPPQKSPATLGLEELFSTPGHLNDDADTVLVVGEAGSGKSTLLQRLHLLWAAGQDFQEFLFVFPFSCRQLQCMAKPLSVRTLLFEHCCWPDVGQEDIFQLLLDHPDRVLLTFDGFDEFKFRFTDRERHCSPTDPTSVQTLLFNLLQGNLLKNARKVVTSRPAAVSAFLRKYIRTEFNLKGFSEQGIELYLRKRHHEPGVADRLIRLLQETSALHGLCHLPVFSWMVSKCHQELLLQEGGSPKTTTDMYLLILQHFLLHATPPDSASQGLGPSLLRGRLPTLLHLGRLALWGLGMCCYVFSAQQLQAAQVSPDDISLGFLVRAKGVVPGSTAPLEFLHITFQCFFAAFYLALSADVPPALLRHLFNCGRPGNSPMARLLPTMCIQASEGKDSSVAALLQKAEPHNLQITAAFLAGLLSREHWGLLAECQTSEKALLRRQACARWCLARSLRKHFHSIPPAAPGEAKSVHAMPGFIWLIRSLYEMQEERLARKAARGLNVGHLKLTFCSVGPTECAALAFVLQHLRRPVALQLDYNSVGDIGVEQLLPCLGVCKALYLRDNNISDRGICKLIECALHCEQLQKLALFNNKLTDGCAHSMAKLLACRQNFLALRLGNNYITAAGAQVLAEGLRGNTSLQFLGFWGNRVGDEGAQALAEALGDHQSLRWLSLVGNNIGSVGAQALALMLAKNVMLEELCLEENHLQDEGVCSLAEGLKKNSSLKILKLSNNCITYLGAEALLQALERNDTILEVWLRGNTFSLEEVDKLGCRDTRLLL
smiles,measurement,setting,value
CCCCN1C(=O)/C(=N\Nc2ccccc2C)c2ccccc21,IC50,[1],78 µM (active)
same,IC50,[2],74.4 µM (active)
O=C(c1ccc(S(=O)(=O)c2ccccc2Cl)c([N+](=O)[O-])c1)N1CCN(Cc2ccccc2)CC1,IC50,HEK293 [3],17.6 µM (active)
same,IC50,HEK293 [4],5.54 µM (active)
same,IC50,HEK293 [5],> 20 µM (inactive)
same,AC50,[6],3.48 µM (active)
same,IC50,HEK293 [7],15.3 µM (active)
same,IC50,Tumor necrosis factor,6.58 µM (active)
same,IC50,HEK293 [8],4.59 µM (active)
same,IC50,[9],3.65 µM (active)
same,EC50,HEK293 [10],12.9 µM (active)
same,EC50,[11],11.8 µM (active)
same,AC50,[12],5.77 µM (active)
same,AC50,[13],50 µM (active)
COc1ccccc1N(CC(=O)Nc1ccc2c(c1)OCO2)S(=O)(=O)c1ccccc1,IC50,[14],1.81 µM (active)
same,IC50,[15],2.01 µM (active)
Cc1ccc(C)c(NC(=O)c2nc[nH]n2)c1,IC50,[14],14.1 µM (active)
same,AC50,Cytochrome P450 2C19,39.8 µM (inconclusive)
same,IC50,[15],11.6 µM (active)
COc1ccc(N2C(=O)C[S+]([O-])C(c3ccccc3)C2=O)cc1 (stereo unspecified),IC50,[16],7.26 µM (active)
same,IC50,[17],> 100 µM (inactive)
COc1ccc(Br)cc1CN(C)C(=O)C1=CC=CN2CCS(=O)(=O)N=C12,IC50,[14],48.3 µM (active)
same,IC50,[15],20.2 µM (active)
O=C(Nc1ccccc1)Nc1ccc(F)c([N+](=O)[O-])c1,EC50,[18],18.1 µM (active)
same,EC50,Ion channel NompC,> 29.9 µM (inactive)
same,EC50,[19],15.2 µM (active)
same,EC50,Mucolipin-3,> 29.9 µM (not active)
NC(S)=NNC(=O)C12CC3CC(CC(C3)C1)C2,EC50,[20],3.53 µM (active)
same,EC50,Ion channel NompC,1.47 µM (active)
same,EC50,Mucolipin-3,2.76 µM (active)
CCn1c(SCC(=O)c2ccc(O)c(O)c2)nnc1-c1ccc(C)cc1,IC50,Large T antigen,10.4 µM (active)
same,IC50,[1],> 100 µM (inactive)
same,IC50,[2],11.8 µM (active)
same,IC50,Leucine aminopeptidase,17.9 µM (active)
O=[N+]([O-])c1cccc(/C=N/n2c(S)nnc2COc2ccccc2)c1,IC50,[16],5.51 µM (active)
same,IC50,[17],> 100 µM (inactive)
